# Assays:
# [1] = biological target: T1, C-X-C chemokine receptor type 2 (Homo sapiens, UniProt P25025); format: cell membranes, Membrane; settings: cho-k1; note: in other assays of this panel Not Active means under 50% inhibition at 10 µM
# T1 sequence (P25025 whole entry): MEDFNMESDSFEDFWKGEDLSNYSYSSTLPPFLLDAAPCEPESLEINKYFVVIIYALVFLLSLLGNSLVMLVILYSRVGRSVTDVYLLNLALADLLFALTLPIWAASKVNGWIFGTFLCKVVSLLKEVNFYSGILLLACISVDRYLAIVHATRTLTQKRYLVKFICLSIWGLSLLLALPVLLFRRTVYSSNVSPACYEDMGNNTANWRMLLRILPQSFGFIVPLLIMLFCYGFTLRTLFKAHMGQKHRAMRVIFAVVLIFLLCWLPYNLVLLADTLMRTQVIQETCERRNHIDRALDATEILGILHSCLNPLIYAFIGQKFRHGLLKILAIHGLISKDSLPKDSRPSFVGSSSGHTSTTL
# [2] = biological target: Protein kinase C alpha type (Homo sapiens, UniProt P17252); format: cell-based; settings: sf9;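 note: inhibition of PKCalpha kinase activity measured in an enzyme assay with histone as the phosphorylation substrate; in other assays of this panel Not Active means under 50% inhibition at 10 µM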
# [3] = biological target: 5-hydroxytryptamine receptor 4 (Cavia porcellus, UniProt O70528); format: cell membranes, Dunkin-Hartley, Striatum, Membrane; note: in other assays of this panel Not Active means under 50% inhibition at 10 µM
# Sequence of 5-hydroxytryptamine receptor 4 (O70528 whole entry): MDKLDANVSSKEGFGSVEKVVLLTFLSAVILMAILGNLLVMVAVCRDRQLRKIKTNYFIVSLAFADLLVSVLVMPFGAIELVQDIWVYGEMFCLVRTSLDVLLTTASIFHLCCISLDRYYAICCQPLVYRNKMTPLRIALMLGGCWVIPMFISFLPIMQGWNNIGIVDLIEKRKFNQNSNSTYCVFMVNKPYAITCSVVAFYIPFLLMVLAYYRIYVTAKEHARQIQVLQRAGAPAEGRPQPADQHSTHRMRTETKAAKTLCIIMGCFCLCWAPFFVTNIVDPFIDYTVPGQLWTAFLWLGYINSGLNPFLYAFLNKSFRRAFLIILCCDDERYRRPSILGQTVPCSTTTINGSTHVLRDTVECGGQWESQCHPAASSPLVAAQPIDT
# Calcitonin receptor = biological target: T2, Calcitonin receptor (Homo sapiens, UniProt P30988); format: cell membranes, Membrane; settings: t47d; note: in other assays of this panel Not Active means under 50% inhibition at 10 µM
# T2 sequence (P30988 whole entry): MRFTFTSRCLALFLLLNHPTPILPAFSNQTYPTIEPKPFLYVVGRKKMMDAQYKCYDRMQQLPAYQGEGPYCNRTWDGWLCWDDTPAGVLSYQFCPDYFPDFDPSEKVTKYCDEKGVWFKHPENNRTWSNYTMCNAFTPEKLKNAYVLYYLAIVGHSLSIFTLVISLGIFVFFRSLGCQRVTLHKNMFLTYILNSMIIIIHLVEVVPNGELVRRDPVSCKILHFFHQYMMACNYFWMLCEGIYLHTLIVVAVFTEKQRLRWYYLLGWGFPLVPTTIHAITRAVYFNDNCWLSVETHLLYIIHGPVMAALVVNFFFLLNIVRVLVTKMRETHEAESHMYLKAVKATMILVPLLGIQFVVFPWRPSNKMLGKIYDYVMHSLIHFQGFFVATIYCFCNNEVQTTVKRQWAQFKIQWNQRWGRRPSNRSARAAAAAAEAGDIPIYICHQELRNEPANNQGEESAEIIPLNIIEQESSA
# [4] = biological target: T3, Muscarinic acetylcholine receptor M2 (Homo sapiens, UniProt P08172); format: cell membranes, CHO-K1, Membrane; settings: cho-k1; note: in other assays of this panel Not Active means under 50% inhibition at 10 µM
# T3 sequence (P08172 whole entry): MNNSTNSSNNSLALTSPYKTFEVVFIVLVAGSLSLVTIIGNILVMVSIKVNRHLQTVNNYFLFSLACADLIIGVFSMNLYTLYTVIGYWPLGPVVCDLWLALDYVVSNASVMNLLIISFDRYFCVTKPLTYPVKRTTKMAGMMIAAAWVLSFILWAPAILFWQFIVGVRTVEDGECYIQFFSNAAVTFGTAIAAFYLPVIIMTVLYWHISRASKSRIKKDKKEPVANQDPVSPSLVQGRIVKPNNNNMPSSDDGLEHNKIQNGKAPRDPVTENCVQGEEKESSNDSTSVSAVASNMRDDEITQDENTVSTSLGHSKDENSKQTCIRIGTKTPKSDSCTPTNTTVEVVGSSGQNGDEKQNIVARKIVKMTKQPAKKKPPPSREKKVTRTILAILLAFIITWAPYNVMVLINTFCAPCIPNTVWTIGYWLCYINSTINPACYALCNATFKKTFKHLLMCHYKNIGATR
# Estrogen receptor = biological target: T4, Estrogen receptor (Homo sapiens, UniProt P03372); settings: sf9; note: in other assays of this panel Not Active means under 50% inhibition at 10 µM
# T4 sequence (P03372 whole entry): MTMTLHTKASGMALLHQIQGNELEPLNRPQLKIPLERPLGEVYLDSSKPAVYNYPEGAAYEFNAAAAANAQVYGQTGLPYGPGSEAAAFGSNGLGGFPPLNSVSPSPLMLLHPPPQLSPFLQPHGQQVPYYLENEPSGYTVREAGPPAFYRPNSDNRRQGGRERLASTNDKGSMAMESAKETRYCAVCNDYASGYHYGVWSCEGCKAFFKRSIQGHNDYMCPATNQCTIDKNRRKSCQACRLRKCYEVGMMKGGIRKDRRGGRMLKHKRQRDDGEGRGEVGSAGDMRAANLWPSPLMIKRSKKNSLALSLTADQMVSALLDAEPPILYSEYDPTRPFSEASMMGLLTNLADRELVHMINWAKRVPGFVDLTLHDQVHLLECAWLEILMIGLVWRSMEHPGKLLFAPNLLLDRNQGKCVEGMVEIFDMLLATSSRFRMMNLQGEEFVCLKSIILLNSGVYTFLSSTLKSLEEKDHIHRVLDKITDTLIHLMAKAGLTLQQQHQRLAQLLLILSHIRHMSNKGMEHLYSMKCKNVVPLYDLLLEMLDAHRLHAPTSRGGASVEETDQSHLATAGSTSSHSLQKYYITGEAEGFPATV
# Mu-type opioid receptor = Mu-type opioid receptor (Homo sapiens, UniProt P35372); test: DRUGMATRIX: Opiate mu (OP3, MOP) radioligand binding (ligand: [3H] Diprenorphine); format: cell membranes, CHO-K1, Membrane; settings: cho-k1; Not Active = under 50% inhibition at 10 µM
# Sequence of Mu-type opioid receptor (P35372 whole entry): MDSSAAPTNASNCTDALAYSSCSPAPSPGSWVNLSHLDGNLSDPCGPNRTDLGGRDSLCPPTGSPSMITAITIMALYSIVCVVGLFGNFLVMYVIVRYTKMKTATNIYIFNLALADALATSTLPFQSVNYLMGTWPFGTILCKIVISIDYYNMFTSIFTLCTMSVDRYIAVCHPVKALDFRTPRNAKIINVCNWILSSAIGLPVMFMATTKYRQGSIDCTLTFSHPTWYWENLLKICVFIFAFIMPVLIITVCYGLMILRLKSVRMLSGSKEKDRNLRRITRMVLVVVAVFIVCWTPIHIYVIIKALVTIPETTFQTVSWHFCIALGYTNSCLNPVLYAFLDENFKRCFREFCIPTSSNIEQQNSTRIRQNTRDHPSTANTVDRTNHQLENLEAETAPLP
# Interstitial collagenase = biological target: T5, Interstitial collagenase (Homo sapiens, UniProt P03956); test: biochemical; format: tissue-based, Rheumatoid synovial fibroblasts
# T5 sequence (P03956 whole entry): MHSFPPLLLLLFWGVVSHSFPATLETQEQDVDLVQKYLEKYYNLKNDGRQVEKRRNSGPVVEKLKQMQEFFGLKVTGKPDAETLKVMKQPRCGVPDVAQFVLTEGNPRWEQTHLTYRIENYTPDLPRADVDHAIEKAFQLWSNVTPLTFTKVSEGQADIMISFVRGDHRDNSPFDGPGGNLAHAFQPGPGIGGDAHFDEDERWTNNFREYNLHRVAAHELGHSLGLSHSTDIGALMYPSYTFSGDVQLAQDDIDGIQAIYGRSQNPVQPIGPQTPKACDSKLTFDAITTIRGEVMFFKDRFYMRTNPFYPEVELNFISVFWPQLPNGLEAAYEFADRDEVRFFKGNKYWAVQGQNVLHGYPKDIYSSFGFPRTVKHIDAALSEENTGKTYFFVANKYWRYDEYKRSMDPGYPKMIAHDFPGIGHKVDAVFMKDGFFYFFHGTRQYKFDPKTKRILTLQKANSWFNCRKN
Structure (SMILES),IC50 [1],IC50 [2],IC50 [3],IC50 (Calcitonin receptor),IC50 [4],IC50 (Estrogen receptor),IC50 (Mu-type opioid receptor),IC50 (Interstitial collagenase),IC50 ([3]; read-out: IC50),Ki ([3]; read-out: Ki)
Nc1ccn([C@@H]2O[C@H](CO)[C@@H](O)[C@@H]2O)c(=O)n1 [CYTARABINE],Not Active,Not Active,Not Active,Not Active,Not Active,Not Active,Not Active,Not Active,–,–
C=CCc1ccc(O)c(OC)c1 [EUGENOL],Not Active,Not Active,Not Active,Not Active,Not Active,Not Active,Not Active,Not Active,–,–
COC1=C(OC)C(=O)C(CCCCCCCCCCO)=C(C)C1=O [IDEBENONE],Not Active,Not Active,Not Active,Not Active,Not Active,Not Active,Not Active,Not Active,–,–
Oc1cccc(O)c1O [PYROGALLOL],Not Active,Not Active,Not Active,Not Active,Not Active,Not Active,Not Active,Not Active,–,–
C[C@]12C=CC(=O)C=C1CC[C@@H]1[C@@H]2[C@@H](O)C[C@@]2(C)[C@H]1CC[C@]2(O)C(=O)CO [PREDNISOLONE],Not Active,Not Active,Not Active,Not Active,Not Active,Not Active,Not Active,Not Active,–,–
CC(=O)[C@H]1[C@H](C#N)C[C@H]2[C@@H]3CC=C4C[C@@H](O)CC[C@]4(C)[C@H]3CC[C@@]21C [PREGNENOLONE CARBONITRILE],Not Active,Not Active,Not Active,Not Active,Not Active,Not Active,Not Active,Not Active,–,–
NC(=O)C[S+]([O-])C(c1ccccc1)c1ccccc1 (stereo not given) [MODAFINIL],Not Active,Not Active,Not Active,Not Active,Not Active,Not Active,Not Active,Not Active,–,–
CCN(CC)CCOCCC1=CCC2CC1C2(C)C (stereo not given) [MYRTECAINE],Not Active,Not Active,Not Active,Not Active,Not Active,Not Active,Not Active,Not Active,–,–
COc1ccc2cc3[n+](cc2c1OC)CCc1cc2c(cc1-3)OCO2.[Cl-] [BERBERINE CHLORIDE],Not Active,Not Active,–,Not Active,Not Active,Not Active,Not Active,Not Active,2.22 µM,0.37 µM
CCC1(C)CC(=O)NC1=O (stereo not given) [ETHOSUXIMIDE],Not Active,Not Active,Not Active,Not Active,Not Active,Not Active,Not Active,Not Active,–,–
CC(C)NNC(=O)c1ccncc1 [IPRONIAZID],Not Active,Not Active,Not Active,Not Active,Not Active,Not Active,Not Active,Not Active,–,–
O=c1cc(N2CCOCC2)oc2c(-c3ccccc3)cccc12 [LY-294002],Not Active,Not Active,Not Active,Not Active,Not Active,Not Active,Not Active,Not Active,–,–
Nc1ccc2c3c(cccc13)C(=O)NC2=O,Not Active,Not Active,Not Active,Not Active,Not Active,Not Active,Not Active,Not Active,–,–
CC(C)(C)NC(=O)[C@H]1CC[C@H]2[C@@H]3CC[C@H]4NC(=O)C=C[C@]4(C)[C@H]3CC[C@]12C [FINASTERIDE],Not Active,Not Active,Not Active,Not Active,Not Active,Not Active,Not Active,Not Active,–,–
CC[C@H](C)[C@H]1O[C@]2(C=C[C@@H]1C)C[C@@H]1C[C@@H](C/C=C(\C)[C@@H](O[C@H]3C[C@H](OC)[C@@H](O[C@H]4C[C@H](OC)[C@@H](O)[C@H](C)O4)[C@H](C)O3)[C@@H](C)/C=C/C=C3\CO[C@@H]4[C@H](O)C(C)=C[C@@H](C(=O)O1)[C@]34O)O2.CO[C@H]1C[C@H](O[C@H]2[C@H](C)O[C@@H](O[C@@H]3/C(C)=C/C[C@@H]4C[C@@H](C[C@]5(C=C[C@H](C)[C@@H](C(C)C)O5)O4)OC(=O)[C@@H]4C=C(C)[C@@H](O)[C@H]5OC/C(=C\C=C\[C@@H]3C)[C@]54O)C[C@@H]2OC)O[C@@H](C)[C@@H]1O [ABAMECTIN],Not Active,Not Active,Not Active,Not Active,Not Active,Not Active,Not Active,Not Active,–,–
C#C[C@]1(OC(C)=O)CC[C@H]2[C@@H]3CCC4=C[C@@H](OC(C)=O)CC[C@@H]4[C@H]3CC[C@@]21C [ETHYNODIOL DIACETATE],Not Active,Not Active,Not Active,Not Active,Not Active,Not Active,Not Active,Not Active,–,–
CN/C(=N\CCSCc1nc[nH]c1C)NC#N [CIMETIDINE],Not Active,Not Active,Not Active,Not Active,Not Active,Not Active,Not Active,Not Active,–,–
COc1ccc2c3c1O[C@H]1C[C@@H](O)C=C[C@@]31CCN(C)C2 [GALANTAMINE],Not Active,Not Active,Not Active,Not Active,Not Active,Not Active,Not Active,Not Active,–,–

# — ChEMBL document CHEMBL1909046, “DrugMatrix in vitro pharmacology data”
